Data taken from ChEMBL document CHEMBL5724696, “Autophagy assay results for EUbOPEN Chemogenomics Library” (2024).
Where “and” joins values, the source holds several entries; their conditions need not be identical. Identical values can stand only once.

Legend:
Format in all cases: functional, Homo sapiens
TERT-RPE1 = test: (§1) Here: values are normalized to the negative (DMSO; defined as 0% autophagy induction) and positive (250nM Torin1; mTOR inhibitor; defined as maximal inducer of autophagy = 100%) control compounds and represented as % of autophagy induction. […] The impact of autophagy induction on cells is complex and depends on the affected target. As such, the magnitude of a phenotype may not be equally mirrored in the %-value of autophagy induction and vice versa. The dynamics of the induction may indicate the mode of activation: e.g. activation via phosphorylation or a signaling cascade may occur fast, while activation via transcription factors may take considerably longer. […] Of note, treatment concentrations may be sub-optimal for specific compounds, leading to false negative annotations.; settings: Culturing Media DMEM/F12 (1:1), 1 % Penicillin/Streptomycin, 10% Fetal bovin serum Add-On: No, Screening Media Control DMEM/F12 (1:1), Screening Media Samples DMEM/F12 (1:1)
U2OS [1] = test: as §1; settings: Culturing Media DMEM, 1 % Penicillin/Streptomycin, 10% Fetal bovin serum Add-On: No, Screening Media Control DMEM, Screening Media Samples DMEM
U2OS [2] = test: as §1; settings: Culturing Media DMEM, 1 % Penicillin/Streptomycin, 10% Fetal bovin serum Add-On: No, Screening Media Control DMEM, Screening Media Samples DMEM; remark: listed apart in the source
[3] = Compound Concentration 0.5 uM, Timepoint 12 hours
[4] = Compound Concentration 0.5 uM, Timepoint 24 hours
[5] = Compound Concentration 0.5 uM, Timepoint 36 hours
[6] = Compound Concentration 0.5 uM, Timepoint 60 hours
[7] = Compound Concentration 2 uM, Timepoint 12 hours
[8] = Compound Concentration 2 uM, Timepoint 24 hours
[9] = Compound Concentration 2 uM, Timepoint 36 hours
[10] = Compound Concentration 2 uM, Timepoint 60 hours
[11] = Compound Concentration 10 uM, Timepoint 12 hours
[12] = Compound Concentration 10 uM, Timepoint 24 hours
[13] = Compound Concentration 10 uM, Timepoint 36 hours
[14] = Compound Concentration 10 uM, Timepoint 60 hours

| SMILES | autophagy induction (U2OS [1]; [3]) [%] | autophagy induction (U2OS [1]; [4]) [%] | autophagy induction (U2OS [1]; [5]) [%] | autophagy induction (U2OS [1]; [6]) [%] | autophagy induction (U2OS [1]; [7]) [%] | autophagy induction (U2OS [1]; [8]) [%] | autophagy induction (U2OS [1]; [9]) [%] | autophagy induction (U2OS [1]; [10]) [%] | autophagy induction (U2OS [1]; [11]) [%] | autophagy induction (U2OS [1]; [12]) [%] | autophagy induction (U2OS [1]; [13]) [%] | autophagy induction (U2OS [1]; [14]) [%] | autophagy induction (U2OS [2]; [3]) [%] | autophagy induction (U2OS [2]; [4]) [%] | autophagy induction (U2OS [2]; [5]) [%] | autophagy induction (U2OS [2]; [6]) [%] | autophagy induction (U2OS [2]; [7]) [%] | autophagy induction (U2OS [2]; [8]) [%] | autophagy induction (U2OS [2]; [9]) [%] | autophagy induction (U2OS [2]; [10]) [%] | other results |
| --- | --- | --- | --- | --- | --- | --- | --- | --- | --- | --- | --- | --- | --- | --- | --- | --- | --- | --- | --- | --- | --- |
| CS(=O)(=O)NC[C@H]1CC[C@H](Nc2nc3c(s2)CCSc2ccccc2-3)CC1 | -4.815 | -2.571 | -1.135 | -2.5406 | -10.1359 | -5.225 | -2.722 | -2.833 | -13.0428 | -4.43 | -4.437 | -6.0772 | 7.101 | 7.652 | 1.469 | -11.3587 | 8.098 | 3.777 | 0.6599 | -6.18 | autophagy induction (TERT-RPE1; [3]): -4.034%; autophagy induction (TERT-RPE1; [4]): -8.281%; autophagy induction (TERT-RPE1; [5]): -9.381%; autophagy induction (TERT-RPE1; [6]): -11.7228%; autophagy induction (TERT-RPE1; [7]): -3.533%; autophagy induction (TERT-RPE1; [8]): -4.081%; autophagy induction (TERT-RPE1; [9]): -4.248%; autophagy induction (TERT-RPE1; [10]): -9.574%; autophagy induction (TERT-RPE1; [11]): -3.228%; autophagy induction (TERT-RPE1; [12]): -1.909%; autophagy induction (TERT-RPE1; [13]): 1.0286%; autophagy induction (TERT-RPE1; [14]): 5.565%; autophagy induction (U2OS [2]; [11]): 6.84%; autophagy induction (U2OS [2]; [12]): 4.331%; autophagy induction (U2OS [2]; [13]): 3.398%; autophagy induction (U2OS [2]; [14]): 7.256% |
| FC(F)(F)c1cccc(-c2noc(-c3cc(-c4ccccc4)c(C(F)(F)F)s3)n2)c1 | -1.1495 | -3.455 | -61.0771 | -1.369 | -1.566 | -3.4743 | -60.4788 | -1.735 | -17.6781 | -7.308 | -61.2616 | -2.196 | 9.021 | 3.382 | -0.06707 | -12.3398 | 0.8817 | -10.2337 | -8.601 | -22.9781 | autophagy induction (TERT-RPE1; Compound Concentration 0.5 uM, Timepoint 12 hours, 12 h, 0.5 µM): 1.977% and -3.815%; autophagy induction (TERT-RPE1; Compound Concentration 0.5 uM, Timepoint 24 hours, 24 h, 0.5 µM): 1.344% and -4.458%; autophagy induction (TERT-RPE1; Compound Concentration 0.5 uM, Timepoint 36 hours, 36 h, 0.5 µM): 0.88% and -7.47%; autophagy induction (TERT-RPE1; Compound Concentration 0.5 uM, Timepoint 60 hours, 60 h, 0.5 µM): -0.5412% and -7.068%; autophagy induction (TERT-RPE1; Compound Concentration 2 uM, Timepoint 12 hours, 12 h, 2 µM): 8.025% and -0.7273%; autophagy induction (TERT-RPE1; Compound Concentration 2 uM, Timepoint 24 hours, 24 h, 2 µM): 4.894% and -1.63%; autophagy induction (TERT-RPE1; Compound Concentration 2 uM, Timepoint 36 hours, 36 h, 2 µM): 2.202% and -4.099%; autophagy induction (TERT-RPE1; Compound Concentration 2 uM, Timepoint 60 hours, 60 h, 2 µM): 3.847% and -8.453%; autophagy induction (TERT-RPE1; Compound Concentration 10 uM, Timepoint 12 hours, 12 h, 10 µM): -16.4913% and 2.616%; autophagy induction (TERT-RPE1; Compound Concentration 10 uM, Timepoint 24 hours, 24 h, 10 µM): -1.867% and 1.296%; autophagy induction (TERT-RPE1; Compound Concentration 10 uM, Timepoint 36 hours, 36 h, 10 µM): 1.745% and 2.594%; autophagy induction (U2OS [2]; [11]): -28.6388%; autophagy induction (U2OS [2]; [12]): -12.6195%; autophagy induction (U2OS [2]; [13]): -3.849%; autophagy induction (U2OS [2]; [14]): -3.37% |
